Assay results as given in the supplement of paper PMC7840683.

Tested on: HepaRG
Assay: LDH release cytotoxicity, % of total lysis control; higher = more cytotoxic
Settings: 48 h
Method in brief: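 HepaRG cells from a single lot were plated on collagen I-coated 96-well plates and treated in duplicate for 48 h with eight-point half-log series of test chemicals, starting at 100 µM, in serum-free induction medium containing 0.5% DMSO. Total lysis wells were given 0.1% Triton X. LDH released into 50 µL of spent medium was measured as resorufin fluorescence with CytoTox-ONE on a Tecan Safire. Percent cytotoxicity was normalized to on-plate vehicle and total lysis controls and then averaged across duplicates.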

CC(=O)SC1CC2=CC(=O)CCC2(C)C2CCC3(C)C(CCC34CCC(=O)O4)C12 (centres undefined) [Spironolactone]
Settings	LDH release cytotoxicity [%]
0.03162 µM	0.148
0.1 µM	-0.279
0.3162278 µM	-1.43
1 µM	-1.93
3.16228 µM	-1.42
10 µM	-1.46
31.6228 µM	-0.441
100 µM	13.5

CCC(C)(C)C1CCC(O)CC1 (centres undefined) [4-(2-Methylbutan-2-yl)cyclohexanol]
Settings	LDH release cytotoxicity [%]
0.03162 µM	-0.419
0.1 µM	-1.92
0.3162278 µM	-1.25
1 µM	-1.82
3.16228 µM	-2.17
10 µM	-1.05
31.6228 µM	-1.3
100 µM	0.0243

NC(=O)NO [Hydroxyurea]
Settings	LDH release cytotoxicity [%]
0.03162 µM	-2.94
0.1 µM	-1.59
0.3162278 µM	-2.4
1 µM	-2.62
3.16228 µM	-1.83
10 µM	-1.79
31.6228 µM	-0.278
100 µM	2.82

CC[C@H](C)[C@H]1O[C@]2(C=C[C@@H]1C)C[C@@H]1C[C@@H](C/C=C(\C)[C@@H](O[C@H]3C[C@H](OC)[C@@H](O[C@H]4C[C@H](OC)[C@@H](O)[C@H](C)O4)[C@H](C)O3)[C@@H](C)/C=C/C=C3\CO[C@@H]4[C@H](O)C(C)=C[C@@H](C(=O)O1)[C@]34O)O2.CO[C@H]1C[C@H](O[C@H]2[C@H](C)O[C@@H](O[C@@H]3/C(C)=C/C[C@@H]4C[C@@H](C[C@]5(C=C[C@H](C)[C@@H](C(C)C)O5)O4)OC(=O)[C@@H]4C=C(C)[C@@H](O)[C@H]5OC/C(=C\C=C\[C@@H]3C)[C@]54O)C[C@@H]2OC)O[C@@H](C)[C@@H]1O [Abamectin]
Settings	LDH release cytotoxicity [%]
0.0191318 µM	-1.6
0.0605 µM	-0.607
0.191318 µM	-1.03
0.605 µM	-0.868
1.913178 µM	-1.21
6.05 µM	-1.13
19.1318 µM	12.3
60.5 µM	63.56

O=[N+]([O-])c1ccc(Cl)c(Cl)c1 [3,4-Dichloronitrobenzene]
Settings	LDH release cytotoxicity [%]
0.03162 µM	-2.51
0.1 µM	-2.5
0.3162278 µM	-2.72
1 µM	-3.32
3.16228 µM	-2.26
10 µM	-2.3
31.6228 µM	-1.86
100 µM	-0.0607

CCOP(=S)(OCC)Oc1nc(Cl)n(C(C)C)n1 [Isazofos]
Settings	LDH release cytotoxicity [%]
0.031623 µM	0.0296
0.1 µM	-1.65
0.316228 µM	-2.1
1 µM	-2.59
3.16228 µM	-3.48
10 µM	-3
31.6228 µM	-3.67
100 µM	1.66

Cc1cn(C2C=CC(CO)O2)c(=O)[nH]c1=O (centres undefined) [Stavudine]
Settings	LDH release cytotoxicity [%]
0.03162 µM	-0.726
0.1 µM	-0.277
0.3162278 µM	0.0542
1 µM	0.024
3.16228 µM	-0.127
10 µM	0.3
31.6228 µM	0.433
100 µM	2.36

CCCCC(CC)COC(=O)CCCCCCCCC(=O)OCC(CC)CCCC (centres undefined) [Bis(2-ethylhexyl) decanedioate]
Settings	LDH release cytotoxicity [%]
0.03162 µM	-11.5
0.1 µM	-10.5
0.3162278 µM	-10.7
1 µM	-10.2
3.16228 µM	-10.2
10 µM	-10.1
31.6228 µM	-9.5
100 µM	-8.97

CCOC1Oc2ccc(OS(C)(=O)=O)cc2C1(C)C (centres undefined) [Ethofumesate]
Settings	LDH release cytotoxicity [%]
0.031623 µM	-1.31
0.1 µM	-1.58
0.316228 µM	-1.7
1 µM	-3.38
3.16228 µM	-2.65
10 µM	-3.76
31.6228 µM	-3.45
100 µM	12.4

Cc1cc(NC(=O)C(=O)O)cc(C)c1Oc1ccc(O)c2c1CCC2
Settings	LDH release cytotoxicity [%]
0.03162 µM	0.0573
0.1 µM	-0.831
0.3162278 µM	-0.658
1 µM	-1.32
3.16228 µM	-1.06
10 µM	-0.633
31.6228 µM	1.17
100 µM	0.214

COP(=S)(OC)Oc1ccc([N+](=O)[O-])cc1 [Methyl parathion]
Settings	LDH release cytotoxicity [%]
0.03162 µM	-0.787
0.1 µM	-0.971
0.3162278 µM	0.295
1 µM	-1.21
3.16228 µM	-0.845
10 µM	0.053
31.6228 µM	0.525
100 µM	1.01

CCCCCCCCCCCCCCCC [Hexadecane]
Settings	LDH release cytotoxicity [%]
0.03162 µM	-0.113
0.1 µM	-0.43
0.3162278 µM	-1.34
1 µM	-1.31
3.16228 µM	-0.091
10 µM	-0.203
31.6228 µM	0.166
100 µM	-0.385

CC(=O)OC1CC(C)OC(C)O1 (centres undefined) [Dimethoxane]
Settings	LDH release cytotoxicity [%]
0.03162 µM	-0.261
0.1 µM	-0.746
0.3162278 µM	-1.64
1 µM	-1.54
3.16228 µM	-1.77
10 µM	-1.72
31.6228 µM	-1.51
100 µM	4.58

Cc1ccccc1[N+](=O)[O-] [2-Nitrotoluene]
Settings	LDH release cytotoxicity [%]
0.0324133 µM	-0.207
0.1025 µM	-0.999
0.324134 µM	-0.895
1.025 µM	-1.29
3.24133 µM	-0.412
10.25 µM	0.00334
32.4133 µM	0.414
102.5 µM	1.14

O=C(CCCCCCCCc1cccnc1)N1CCC(C=C(c2ccccc2)c2ccccc2)CC1 [Ro 23-7637]
Settings	LDH release cytotoxicity [%]
0.03162 µM	0.3
0.1 µM	-1.044
0.3162278 µM	-0.912
1 µM	-1.28
3.16228 µM	-1.65
10 µM	-1.03
31.6228 µM	11.7
100 µM	63.3

O=[Si]=O [Silica]
Settings	LDH release cytotoxicity [%]
0.03162 µM	-1.16
0.1 µM	-1.07
0.3162278 µM	-1.23
1 µM	-0.971
3.16228 µM	-1.72
10 µM	-1.27
31.6228 µM	-0.861
100 µM	0.501

CCOP(=O)(OCC)Oc1cc(C)nc(C(C)C)n1 [Diazoxon]
Settings	LDH release cytotoxicity [%]
0.03162 µM	-0.61
0.1 µM	-1.35
0.3162278 µM	-0.708
1 µM	-1.37
3.16228 µM	-1.41
10 µM	-0.802
31.6228 µM	-0.357
100 µM	1.03

C[C@](N)(Cc1ccc(O)c(O)c1)C(=O)O [Methyldopa sesquihydrate]
Settings	LDH release cytotoxicity [%]
0.03162 µM	-0.769
0.1 µM	-1.62
0.3162278 µM	-0.864
1 µM	-1.87
3.16228 µM	-1.57
10 µM	-0.513
31.6228 µM	-2.01
100 µM	-2.91
